Data on three molecules can be found in ChEMBL document CHEMBL5360532, “Current scenario of quinolone hybrids with potential antibacterial activity against ESKAPE pathogens” (Eur J Med Chem, 2023).

The structures appear in SMILES notation. Converted amounts (≈) assume the structure as drawn.

Holding throughout (type): functional
Assay [1] relates to Mycobacterium tuberculosis. The assay can be described thus: Potency index, ratio of ciprofloxacin MIC to test compound MIC for antimycobacterial activity against multidrug resistant Mycobacterium tuberculosis assessed as bacterial growth inhibition by LJ slant assay.
The subject of assay [2] is Mycobacterium tuberculosis. Kind of assay: Potency index, ratio of ciprofloxacin MIC to test compound MIC for antimycobacterial activity against extensive drug resistant Mycobacterium tuberculosis assessed as bacterial growth inhibition by LJ slant assay.
Assay [3] concerns Mycobacterium tuberculosis. Kind of assay: Antimycobacterial activity against extensive drug resistant Mycobacterium tuberculosis assessed as bacterial growth inhibition by agar cup diffusion assay.
In assay [4] the test system is Mycobacterium tuberculosis. Kind of assay: Antimycobacterial activity against multidrug resistant Mycobacterium tuberculosis assessed as bacterial growth inhibition by agar cup diffusion assay.

Consider `O=c1c(-c2nnc(S)o2)cn(C2CC2)c2cc(N3CCNCC3)c(F)cc12`, for which the Ratio entry in assay [1] and in assay [2] was “>=32” each time.

In general, MIC refers to the lowest concentration that inhibits growth of the organism. `O=C(CN1CCN(c2cc3c(cc2F)c(=O)c(C(=O)O)cn3C2CC2)CC1)Nc1nnc(-c2ccccc2)s1`: the MIC in assay [3] and in assay [4] was 8 µg/mL (≈ 14.6 µM) throughout.

On to `C=CCn1c(SCC(=O)N2CCN(c3cc4c(cc3F)c(=O)c(C(=O)O)cn4C3CC3)CC2)nnc1-c1ccccc1`, for which the minimum inhibitory concentration (MIC) in assay [3] and in assay [4] was 4 µg/mL (≈ 6.8 µM) throughout.
